Read-outs that look alike come from different tables or passages of the source.
Tests used:
Bet_v_1 [1] = target: T1, Bet_v_1 (Betula pendula, UniProt P15494); experiment: Surface acoustic wave (SAW) interaction studies, determination of Kd; assay type: binding
T1 construct: made in house
T1 sequence (P15494 1-160): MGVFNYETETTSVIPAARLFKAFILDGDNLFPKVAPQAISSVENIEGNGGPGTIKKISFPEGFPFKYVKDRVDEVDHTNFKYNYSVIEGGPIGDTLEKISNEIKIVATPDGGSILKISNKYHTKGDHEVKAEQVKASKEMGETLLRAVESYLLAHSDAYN
Excerpt: (§1) Surface acoustic wave (SAW) technology and NMR spectroscopy were used to observe the interaction of Bet_v_1 with the selected compounds, including determination of the dissociation constant (K d). The influence of ligand binding on the secondary structure elements and the thermal stability of Bet_v_1 was monitored using circular dichroism (CD, JASCO J‐815 spectropolarimeter, Jasco) and Fourier transform infrared (FTIR) spectroscopy (Tensor II FTIR system, Bruker Optics Inc). A detailed description of these methods is available (Appendix [Link], [Link]).
To assess the interactions between Bet_v_1 and Q3OS, DOC, PPE1, LTA, or LPS, we determined the dissociation constants (K d) using SAW binding assays (Table 1, Figure S1), a more quantitative approach than previously described qualitative assays.11, 25 In addition, the LPS‐substructure Kdo2‐Lipid A (Kdo2) was used for binding studies, due to its more homogenous structure but similar immune stimulatory activity when compared to native LPS.
For the determination of the affinity constant Kd, we used surface acoustic wave (SAW) technology. The interaction of the six ligands with Bet v 1 was investigated using a sam® 5BLUE biosensor instrument (Nanotemper, Munich, Germany). Bet v 1 was immobilized in PBS on the surface of a SAW CM-Dextran 3D sensor chip. […] For calculating the affinity constant Kd, different concentrations of the ligands dissolved in a 5 mM sodium phosphate buffer, pH 7.4, were applied to the Bet v 1-coupled chip. Depending on the ligand, the concentration range of the injected ligand varied between 5 µM and 500 µM. For the removal of residual ligand between the sample injections, the chip was washed with regeneration buffer (10 mM citric acid buffer, pH 2.8). The recorded SAW phase changes were analyzed using the software TraceDrawer 1.7 (Ridgeview Instruments, Uppsala, Sweden). The affinity constant Kd was calculated by kinetic evaluation and affinity/EC50 estimation. For kinetic evaluation, an OneToOne curve fit was chosen to match the raw data. Experiments were performed with two coated chips in duplicate, and the coupling efficiency was evaluated using a mouse monoclonal anti-Bet v 1 antibody.

cathepsin S = target: T2, cathepsin S (Homo sapiens, UniProt P25774); experiment: Enzymatic activity assay, fluorogenic substrate Z-VVR-AMC; assay type: biochemical
T2 construct: made in house
T2 sequence (P25774 115-331): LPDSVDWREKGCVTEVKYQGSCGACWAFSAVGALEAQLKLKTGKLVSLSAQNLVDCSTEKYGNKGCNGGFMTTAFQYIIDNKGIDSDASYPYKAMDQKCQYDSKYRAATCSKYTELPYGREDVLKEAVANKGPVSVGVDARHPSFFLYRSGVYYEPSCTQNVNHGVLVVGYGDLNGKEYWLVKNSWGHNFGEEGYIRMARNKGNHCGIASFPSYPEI
Experimental: To evaluate the influence of Bet_v_1 ligands on cathepsin S and legumain activities, 10 nmol/L of protease was incubated with 100 µmol/L of ligand (unless otherwise stated) and 50 µmol/L of fluorogenic substrate in digestion buffer (0.1 mol/L sodium acetate pH 5.0, 0.1 mol/L sodium chloride, 5 mmol/L EDTA, and 2 mmol/L DTT), as described in the Appendix [Link], [Link]. The effect of birch pollen extract (BPE) (20‐200 µg/mL) on the cathepsin S and legumain activities was assessed in parallel. The inhibitory effect of PPE1 was assessed by replacing DTT with 0.5 mmol/L TCEP. Activities of recombinant rat cathepsin B (provided by Dr Lukas Mach) and papain (Merck) at 10 nmol/L were assayed using Z‐FR‐AMC (Bachem) as a fluorogenic substrate.
For the detection of cathepsin or legumain activities in the microsomal fraction, 8 µg of microsomal extract was incubated with 50 µM fluorogenic substrate with or without inhibitor in assay buffer (100 mM citrate pH 4.8 and 2 mM DTT). The enzymatic reactions were carried out in a 50 µL reaction volume in a 96-half-well black flat bottom assay plate (Corning Inc., Corning, NY, USA) at 37°C. The fluorescence signal was recorded using a Tecan Infinite-200 plate reader (Tecan, Männedorf, Switzerland) at an excitation wavelength of 380 nm and emission wavelength of 460 nm for 15 min of continuous measurement with a 30-s interval reading. The fluorogenic substrates used for cathepsin S and legumain were Z-VVR-AMC and Z-AAN-AMC (Bachem, Bubendorf, Switzerland), respectively. The inhibitors used for cathepsin S and legumain were Z-FL-COCHO (Sigma-Aldrich, CA, USA) and Ac-YVAD-CMK (Bachem), respectively^11.

Bet_v_1 [2] = target: T1, Bet_v_1; experiment: NMR spectroscopy (1H-15N HSQC) binding confirmation; conditions: for NMR (binding confirmation, K d): 15N-labeled Bet v 1, direct measurement of Kd prevented by intermediate exchange; for specific binding to Bet v 1 (1H-15N HSQC spectra): absence vs presence of compound
Excerpt: as §1
To validate the interactions determined by SAW, we used NMR spectroscopy to test the specific binding of PPE1, LTA, LPS, and Kdo2 to Bet_v_1 (Table 1, Figure S2). […] The commercially available PPA1 was used as a substitute for PPE1 to identify the phytoprostane binding site(s).
The NMR data were acquired with either a 600 or 800 MHz Agilent DD2 spectrometer with a cryogenically cooled probe using the pulse sequence gNhsqc. Bet v 1 assignments were taken from.^2 The experiments were performed under the following conditions: LTA: 45 µM Bet v 1 and 300 µM LTA in PBS, 10% ^2H2O, 60 µM DSS; PPE1: 25 µM Bet v 1 and 2 µM PPE1 in PBS, 5% ^2H-(d6) DMSO, 10% ^2H2O, 60 µM DSS; PPA1: 100 µM Bet v 1 and 302 µM PPA1 (Cayman Chemical, MI, USA) in PBS, 8.7% ^2H-(d6) DMSO, 10% ^2H2O, 60 µM DSS; LPS: 100 µM Bet v 1 and 400 µM LPS in PBS pH 7.4, 10% ^2H2O, 60 µM DSS. Kdo2: 100 µM Bet v 1 and 422 µM Kdo2 in PBS pH 7.0, 10% ^2H2O, 8.6% ^2H-(d6) DMSO, 60 µM DSS.

Bet v 1 / human legumain = target: T3, Bet v 1 / human legumain (Betula pendula, UniProt P15494); experiment: Bet v 1 in vitro proteolytic degradation assay with legumain; assay type: biochemical; conditions: Bet v 1 20 µM, ligand 100 µM, legumain 2 µM, pH 5.0, 0-24 h, SDS-PAGE
T3 construct: made in house
T3 sequence (P15494 2-160 limits assumed): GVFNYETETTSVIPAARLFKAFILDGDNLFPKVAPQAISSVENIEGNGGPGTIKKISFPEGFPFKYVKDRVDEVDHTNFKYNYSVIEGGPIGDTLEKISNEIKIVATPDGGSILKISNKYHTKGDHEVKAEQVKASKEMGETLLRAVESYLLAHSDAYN
Experimental: (§2) The endolysosomal degradation assay was performed with ligand‐bound (either DOC, PPE1, or Q3OS in 10× molar excess) and Bet_v_1 without ligands (apo‐Bet_v_1) as previously described.21 Recombinant human cathepsin S and human legumain were used in proteolytic degradation assays. Experimental details are described in the Appendix [Link], [Link].
(§3) Recombinant human cathepsin S and human legumain were heterologously expressed and purified as described previously.^9,10 Bet v 1 (20 µM) was incubated with ligand (100 µM) in digestion buffer (0.1 M sodium acetate, pH 5.0, 0.1 M sodium chloride, 5 mM EDTA, and 2 mM DTT) at room temperature prior to the addition of cathepsin S (1 µM) or legumain (2 µM). […] At each time point, the reaction was halted by the addition of E64 (for cathepsin S) or YVAD-CMK (for legumain) at a final concentration of 50 µM, and analyzed by SDS-PAGE. Control reactions without the addition of protease were performed. The generated peptides were analyzed using mass spectrometry.

[3] = target: T4, Bet v 1 / human cathepsin S (Betula pendula, UniProt P15494); experiment: Bet v 1 in vitro proteolytic degradation assay with cathepsin S; assay type: biochemical; conditions: Bet v 1 20 µM, ligand 100 µM, cathepsin S 1 µM, pH 5.0, 0-24 h, SDS-PAGE
T4 construct: made in house
T4 sequence (P15494 2-160 limits assumed): T3 sequence (P15494 2-160 limits assumed)
Experimental: as §2, §3

Bet_v_1 [4] = target: T1, Bet_v_1; experiment: LPS pull-down assay; assay type: binding, Betula verrucosa; conditions: LPS immobilized on Strep‐Tactin Sepharose beads
Experimental: To investigate whether Bet v 1 binds LPS, a pull-down assay using biotinylated ultrapure E. coli O111:B4 LPS (InvivoGen, San Diego, CA, USA) was performed as previously described.^3 In short, biotinylated LPS was immobilized on Strep-Tactin Sepharose beads (IBA Lifesciences, Göttingen, Germany) and incubated with Bet v 1 for 20 min at room temperature. Unbound protein was washed off and beads were analyzed by SDS-PAGE. As control, the individual components (Bet v 1, biotinylated LPS and Strep-Tactin Sepharose beads), and Bet v 1+beads to exclude unspecific binding, were analyzed.

Bet_v_1 [5] = target: T1, Bet_v_1; conditions: read-out: K d of ANS, previously published; cited from earlier work
[6] = Bet v 1 immobilized on chip, ligands in 5 mM sodium phosphate buffer pH 7.4, read-out: Binding affinity K d (SAW)
[7] = Fig. S1 sensorgrams, read-out: Kd (SAW, Fig. S1)

| Compound | Kd (Bet_v_1 [1]; [6]) | NMR (binding confirmation, K d) (Bet_v_1 [2]) | specific binding to Bet v 1 (1H-15N HSQC spectra) (Bet_v_1 [2]) | Kd (Bet_v_1 [1]; [7]) | processing (degradation) of Bet v 1 by legumain (Bet v 1 / human legumain) | processing (degradation) of Bet v 1 by cathepsin S [3] | other results |
| --- | --- | --- | --- | --- | --- | --- | --- |
| CCC(O)/C=C/C1C(O)CC(O)C1CCCCCCCC(=O)O (stereo not shown) [PPF1, F1‐phytoprostanes] | 2.4 µM |  |  |  |  |  | cathepsin S activity with phytohormones structurally related to PPE1 (cathepsin S; 0.1 mmol/L, 15 min (Figure 4B)): did not inhibit |
| lipoteichoic acid [LTA] | 200 µM | No significant interactions | No significant interactions | 200 µM |  |  |  |
| CCCCCCCCCCCCCC(=O)O[C@H](CCCCCCCCCCC)CC(=O)O[C@@H]1[C@@H](NC(=O)C[C@@H](CCCCCCCCCCC)OC(=O)CCCCCCCCCCC)[C@H](OC[C@H]2O[C@H](OP(=O)(O)O)[C@H](NC(=O)C[C@H](O)CCCCCCCCCCC)[C@@H](OC(=O)C[C@H](O)CCCCCCCCCCC)[C@@H]2O)O[C@H](CO[C@]2(C(=O)O)C[C@@H](O[C@]3(C(=O)O)C[C@@H](O)[C@@H](O)[C@@H]([C@H](O)CO)O3)[C@@H](O)[C@@H]([C@H](O)CO)O2)[C@H]1OP(=O)(O)O [Kdo2, Kdo2‐Lipid A] | 380 µM | No significant interactions | No significant interactions | 380 µM |  |  |  |
| CCCCCCCCCCCCOS(=O)(=O)[O-].[Na+] [SDS, sodium dodecyl sulfate] |  |  |  |  | significantly accelerated | significantly accelerated | cathepsin S fluorogenic activity (cathepsin S; 10 nmol/L protease, 100 µmol/L ligand, 50 µmol/L substrate, pH 5.0, 2 mmol/L DTT (Figure 3A)): reduced the cleavage of fluorogenic substrates |
| O=C1C[C@@H](c2ccc(O)cc2)Oc2cc(O)cc(O)c21 [Naringenin, naringenin] |  |  |  |  | minor | minor |  |
| lipopolysaccharide [LPS] | 185 µM | No significant interactions | No significant interactions | 185 µM |  |  | binding of Bet v 1 to biotinylated LPS (pull-down) (Bet_v_1 [4]): do not specifically bind |
| O=S(=O)(O)c1cccc2cccc(Nc3ccccc3)c12 [ANS, 8‐anilinonaphthalene‐1‐sulfonic acid] |  |  |  |  | no detectable | no detectable | Kd (Bet_v_1 [5]): 18.5 µM; Kd (Bet_v_1 [1]; Binding affinity K d (SAW), Bet v 1 immobilized on chip, ligands in 5 mM sodium phosphate buffer pH 7.4): 32.7 µM; Kd (Bet_v_1 [1]; Kd (SAW, Fig. S1), Fig. S1 sensorgrams): 32.7 µM |
